± gives the standard deviation of the averaged measurements.
Columns and labels:
Assay in all cases: level (log10 ratio to DMSO vehicle control); higher = higher biomarker level / cell amount than vehicle control
[1] = compound: C=CC(=O)OCC(F)(F)C(F)(F)C(F)(F)C(F)(F)COC(=O)C=C [1H,1H,6H,6H-Perfluorohexane-1,6-diol diacrylate]; details: 6700 nM; in DMSO
Experimental: (§1)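 BioMAP Diversity Plus panel of 12 human primary cell co-culture systems (3C, 4H, LPS, SAg, BT, BF4T, BE3C, CASM3C, HDF3CGF, KF3CT, MyoF, Mphg). Compounds were added 1 h before stimulation and left for 24 h (MyoF 48 h; BT 72 h for soluble read-outs or 6 d for IgG). Biomarkers were read by ELISA, cytotoxicity by SRB, PBMC viability and proliferation by Alamar Blue. Each well value was divided by the mean of 8 DMSO control wells on the same plate and log10 transformed; duplicate blinded samples were tested at 4 concentrations.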

[2] = compound: CN(Cc1cnc2nc(N)nc(N)c2n1)c1ccc(C(=O)N[C@@H](CCC(=O)O)C(=O)O)cc1 [Methotrexate]; details: in DMSO
Experimental: as §1

[3] = compound: OCCC(F)(F)C(F)(F)C(F)(F)C(F)(F)C(F)(F)C(F)(F)C(F)(F)C(F)(F)F [8:2 Fluorotelomer alcohol]; details: 6700 nM; in DMSO
Experimental: as §1

[4] = compound: FC(F)(F)COC(OCC(F)(F)F)OCC(F)(F)F [tris(Trifluoroethoxy)methane]; details: in DMSO
Experimental: as §1

[5] = compound: OC(C(F)(F)F)(C(F)(F)F)C(O)(C(F)(F)F)C(F)(F)F [Perfluoropinacol]; details: in DMSO
Experimental: as §1

[6] = compound: O=S(=O)(OCC(F)(F)F)C(F)(F)C(F)(F)C(F)(F)C(F)(F)F [2,2,2-Trifluoroethyl perfluorobutanesulfonate]; details: in DMSO
Experimental: as §1

[7] = compound: O=C(CC(=O)C(F)(F)C(F)(F)C(F)(F)F)c1cccs1 [(Perfluorobutyryl)-2-thenoylmethane]; details: in DMSO
Experimental: as §1

[8] = compound: FC(F)(I)C(F)(F)C(F)(F)C(F)(F)C(F)(F)C(F)(F)I [1,6-Diiodoperfluorohexane]; details: 6700 nM; in DMSO
Experimental: as §1

[9] = compound: O=C(O)C(F)(F)C(F)(F)C(=O)O [Tetrafluorosuccinic acid]; details: in DMSO
Experimental: as §1

## LPS:CD106/VCAM-1
[1]
  level (log10): -0.048 ± 0.0099
[2]; 1500 nM
  level (log10): 0.0075 ± 0.03
[2]; 4400 nM
  level (log10): -0.0065 ± 0.011
[2]; 13000 nM
  level (log10): 0.0085 ± 0.00071
[2]; 40000 nM
  level (log10): -0.0145 ± 0.005
[3]
  level (log10): -0.0785 ± 0.042
[4]; 6700 nM
  level (log10): -0.025 ± 0.027
[4]; 20000 nM
  level (log10): 0.011 ± 0.013
[4]; 60000 nM
  level (log10): 0.002 ± 0.037
[5]; 6700 nM
  level (log10): 0.0045 ± 0.013
[5]; 20000 nM
  level (log10): -0.0825 ± 0.015
[6]; 6700 nM
  level (log10): 0.0055 ± 0.052
[6]; 20000 nM
  level (log10): -0.0075 ± 0.015
[6]; 60000 nM
  level (log10): -0.076 ± 0.013
[7]; 6700 nM
  level (log10): -0.0045 ± 0.011
[7]; 20000 nM
  level (log10): -0.023 ± 0.031
[8]
  level (log10): -0.041
[9]; 6700 nM
  level (log10): -0.0245 ± 0.026
[9]; 20000 nM
  level (log10): -0.007 ± 0.0057
[9]; 60000 nM
  level (log10): 0.002 ± 0.018

## LPS:CD141/Thrombomodulin
[1]
  level (log10): -0.0375 ± 0.013
[2]; 1500 nM
  level (log10): 0.016 ± 0.03
[2]; 4400 nM
  level (log10): -0.0155 ± 0.036
[2]; 13000 nM
  level (log10): 0.0085 ± 0.015
[2]; 40000 nM
  level (log10): -0.0025 ± 0.023
[3]
  level (log10): -0.0605 ± 0.14
[4]; 6700 nM
  level (log10): -0.042 ± 0.042
[4]; 20000 nM
  level (log10): -0.0385 ± 0.0078
[4]; 60000 nM
  level (log10): -0.0505 ± 0.0035
[5]; 6700 nM
  level (log10): -0.106 ± 0.028
[5]; 20000 nM
  level (log10): -0.118 ± 0.005
[6]; 6700 nM
  level (log10): -0.0075 ± 0.03
[6]; 20000 nM
  level (log10): 0.0145 ± 0.04
[6]; 60000 nM
  level (log10): 0.067 ± 0.025
[7]; 6700 nM
  level (log10): -0.009 ± 0.042
[7]; 20000 nM
  level (log10): -0.0665 ± 0.077
[8]
  level (log10): 0.007
[9]; 6700 nM
  level (log10): 0.019 ± 0.1
[9]; 20000 nM
  level (log10): 0.043 ± 0.057
[9]; 60000 nM
  level (log10): 0.04 ± 0.047

## LPS:CD142/Tissue Factor
[1]
  level (log10): -0.0415 ± 0.00071
[2]; 1500 nM
  level (log10): -0.0105 ± 0.018
[2]; 4400 nM
  level (log10): -0.0155 ± 0.039
[2]; 13000 nM
  level (log10): 0.022 ± 0.076
[2]; 40000 nM
  level (log10): -0.0035 ± 0.0021
[3]
  level (log10): -0.0205 ± 0.1
[4]; 6700 nM
  level (log10): -0.013 ± 0.011
[4]; 20000 nM
  level (log10): -0.02 ± 0.027
[4]; 60000 nM
  level (log10): -0.0085 ± 0.06
[5]; 6700 nM
  level (log10): -0.0795 ± 0.0035
[5]; 20000 nM
  level (log10): -0.038 ± 0.02
[6]; 6700 nM
  level (log10): 0.0325 ± 0.12
[6]; 20000 nM
  level (log10): -0.069 ± 0.13
[6]; 60000 nM
  level (log10): -0.153 ± 0.13
[7]; 6700 nM
  level (log10): -0.004 ± 0.093
[7]; 20000 nM
  level (log10): 0.323 ± 0.0028
[8]
  level (log10): 0.019
[9]; 6700 nM
  level (log10): -0.001 ± 0.047
[9]; 20000 nM
  level (log10): -0.0155 ± 0.079
[9]; 60000 nM
  level (log10): 0.014 ± 0.037

## LPS:CXCL8/IL-8
[1]
  level (log10): -0.0205 ± 0.028
[2]; 1500 nM
  level (log10): -0.015 ± 0.0085
[2]; 4400 nM
  level (log10): -0.001 ± 0.013
[2]; 13000 nM
  level (log10): 0.0045 ± 0.0021
[2]; 40000 nM
  level (log10): 0.0055 ± 0.013
[3]
  level (log10): -0.0375 ± 0.029
[4]; 6700 nM
  level (log10): -0.0245 ± 0.049
[4]; 20000 nM
  level (log10): -0.0285 ± 0.022
[4]; 60000 nM
  level (log10): 0.0315 ± 0.08
[5]; 6700 nM
  level (log10): -0.003 ± 0.0028
[5]; 20000 nM
  level (log10): -0.0315 ± 0.0021
[6]; 6700 nM
  level (log10): -0.004 ± 0.034
[6]; 20000 nM
  level (log10): -0.002 ± 0.0099
[6]; 60000 nM
  level (log10): -0.0205 ± 0.026
[7]; 6700 nM
  level (log10): -0.0595 ± 0.032
[7]; 20000 nM
  level (log10): -0.033 ± 0.047
[8]
  level (log10): 0.002
[9]; 6700 nM
  level (log10): -0.0065 ± 0.00071
[9]; 20000 nM
  level (log10): -0.003 ± 0.016
[9]; 60000 nM
  level (log10): 0.009 ± 0.02

## LPS:IL-1alpha
[1]
  level (log10): -0.0065 ± 0.015
[2]; 1500 nM
  level (log10): -0.003 ± 0.024
[2]; 4400 nM
  level (log10): 0.003 ± 0.017
[2]; 13000 nM
  level (log10): 0.005 ± 0.031
[2]; 40000 nM
  level (log10): 0.0465 ± 0.077
[3]
  level (log10): -0.015 ± 0.013
[4]; 6700 nM
  level (log10): -0.019 ± 0.014
[4]; 20000 nM
  level (log10): -0.015 ± 0.014
[4]; 60000 nM
  level (log10): -0.0095 ± 0.035
[5]; 6700 nM
  level (log10): 0.0305 ± 0.011
[5]; 20000 nM
  level (log10): 0.041 ± 0.0014
[6]; 6700 nM
  level (log10): -0.061 ± 0.079
[6]; 20000 nM
  level (log10): -0.104 ± 0.041
[6]; 60000 nM
  level (log10): -0.172 ± 0.052
[7]; 6700 nM
  level (log10): -0.069 ± 0.034
[7]; 20000 nM
  level (log10): 0.109 ± 0.016
[8]
  level (log10): -0.016
[9]; 6700 nM
  level (log10): -0.0215 ± 0.021
[9]; 20000 nM
  level (log10): -0.0175 ± 0.0092
[9]; 60000 nM
  level (log10): -0.0015 ± 0.013

## LPS:M-CSF
[1]
  level (log10): -0.021 ± 0.021
[2]; 1500 nM
  level (log10): 0.0235 ± 0.005
[2]; 4400 nM
  level (log10): 0.0035 ± 0.019
[2]; 13000 nM
  level (log10): 0.0235 ± 0.0035
[2]; 40000 nM
  level (log10): -0.0065 ± 0.03
[3]
  level (log10): -0.06 ± 0.13
[4]; 6700 nM
  level (log10): 0.003 ± 0.0085
[4]; 20000 nM
  level (log10): 0.005 ± 0.0042
[4]; 60000 nM
  level (log10): -0.0005 ± 0.0092
[5]; 6700 nM
  level (log10): 0.0135 ± 0.015
[5]; 20000 nM
  level (log10): -0.1085 ± 0.00071
[6]; 6700 nM
  level (log10): -0.01 ± 0.016
[6]; 20000 nM
  level (log10): -0.046 ± 0.02
[6]; 60000 nM
  level (log10): -0.09 ± 0.0085
[7]; 6700 nM
  level (log10): 0.004 ± 0.085
[7]; 20000 nM
  level (log10): -0.046 ± 0.072
[8]
  level (log10): -0.008
[9]; 6700 nM
  level (log10): -0.0255 ± 0.0078
[9]; 20000 nM
  level (log10): -0.018 ± 0.014
[9]; 60000 nM
  level (log10): 0.0335 ± 0.047

## LPS:SRB
[1]
  level (log10): -0.0065 ± 0.0092
[2]; 1500 nM
  level (log10): -0.0005 ± 0.013
[2]; 4400 nM
  level (log10): 0.001
[2]; 13000 nM
  level (log10): 0.0015 ± 0.00071
[2]; 40000 nM
  level (log10): 0.005 ± 0.011
[3]
  level (log10): -0.0125 ± 0.011
[4]; 6700 nM
  level (log10): -0.0065 ± 0.0021
[4]; 20000 nM
  level (log10): -0.0015 ± 0.011
[4]; 60000 nM
  level (log10): -0.0015 ± 0.0078
[5]; 6700 nM
  level (log10): -0.0265 ± 0.0021
[5]; 20000 nM
  level (log10): -0.151 ± 0.0064
[6]; 6700 nM
  level (log10): 0.007 ± 0.0014
[6]; 20000 nM
  level (log10): -0.0035 ± 0.0092
[6]; 60000 nM
  level (log10): -0.004 ± 0.0071
[7]; 6700 nM
  level (log10): -0.015 ± 0.014
[7]; 20000 nM
  level (log10): -0.117 ± 0.019
[8]
  level (log10): 0.012
[9]; 6700 nM
  level (log10): -0.0055 ± 0.013
[9]; 20000 nM
  level (log10): -0.008 ± 0.0014
[9]; 60000 nM
  level (log10): -0.017 ± 0.0042
